From patent US6858774B2, “MDR-like ABC transporter gene from plants” (Wisconsin Alumni Research Foundation, priority 1998, dated 2005)

Legend:
[1] = system: wild type Arabidopsis seedlings; assay: Treatment of wild type seedlings, morphological phenotype; format: in vivo, Arabidopsis thaliana; conditions: 2,4-D or high concentrations of auxin
From the text: Expression of the plPAC gene of the present invention is inducible by auxin as described below in Example 4. Treatment of wild type Arabidopsis seedlings with 2,4-D or high concentrations of auxin result in plants with the same phenotype as that of ATPAC mutant plants. […] Under this model, tissues that express this pump would accumulate auxin as a result of the mutation and the altered auxin balance could be responsible for the altered growth patters typifying the ATPAC phenotype. Further support of this model is the similarity of auxin to indolylic substrates pumped by human MDR1, and the finding that ATPAC expression is increased by auxin.

ATPAC = molecular target: T1, ATPAC (Arabidopsis thaliana, UniProt Q9LJX0, DUP906-907/P1064L); assay: NPA binding to yeast expressing ATPAC
T1 construct: The 3.76 kb cDNA clone encodes a polypeptide 1,254 amino acids in length; expressed in transfected cells; host or cells: yeast (wild type and a strain lacking seven ABC transporters)
T1 sequence (Q9LJX0 other isoform, or with tags, fused parts or gaps DUP906-907/P1064L): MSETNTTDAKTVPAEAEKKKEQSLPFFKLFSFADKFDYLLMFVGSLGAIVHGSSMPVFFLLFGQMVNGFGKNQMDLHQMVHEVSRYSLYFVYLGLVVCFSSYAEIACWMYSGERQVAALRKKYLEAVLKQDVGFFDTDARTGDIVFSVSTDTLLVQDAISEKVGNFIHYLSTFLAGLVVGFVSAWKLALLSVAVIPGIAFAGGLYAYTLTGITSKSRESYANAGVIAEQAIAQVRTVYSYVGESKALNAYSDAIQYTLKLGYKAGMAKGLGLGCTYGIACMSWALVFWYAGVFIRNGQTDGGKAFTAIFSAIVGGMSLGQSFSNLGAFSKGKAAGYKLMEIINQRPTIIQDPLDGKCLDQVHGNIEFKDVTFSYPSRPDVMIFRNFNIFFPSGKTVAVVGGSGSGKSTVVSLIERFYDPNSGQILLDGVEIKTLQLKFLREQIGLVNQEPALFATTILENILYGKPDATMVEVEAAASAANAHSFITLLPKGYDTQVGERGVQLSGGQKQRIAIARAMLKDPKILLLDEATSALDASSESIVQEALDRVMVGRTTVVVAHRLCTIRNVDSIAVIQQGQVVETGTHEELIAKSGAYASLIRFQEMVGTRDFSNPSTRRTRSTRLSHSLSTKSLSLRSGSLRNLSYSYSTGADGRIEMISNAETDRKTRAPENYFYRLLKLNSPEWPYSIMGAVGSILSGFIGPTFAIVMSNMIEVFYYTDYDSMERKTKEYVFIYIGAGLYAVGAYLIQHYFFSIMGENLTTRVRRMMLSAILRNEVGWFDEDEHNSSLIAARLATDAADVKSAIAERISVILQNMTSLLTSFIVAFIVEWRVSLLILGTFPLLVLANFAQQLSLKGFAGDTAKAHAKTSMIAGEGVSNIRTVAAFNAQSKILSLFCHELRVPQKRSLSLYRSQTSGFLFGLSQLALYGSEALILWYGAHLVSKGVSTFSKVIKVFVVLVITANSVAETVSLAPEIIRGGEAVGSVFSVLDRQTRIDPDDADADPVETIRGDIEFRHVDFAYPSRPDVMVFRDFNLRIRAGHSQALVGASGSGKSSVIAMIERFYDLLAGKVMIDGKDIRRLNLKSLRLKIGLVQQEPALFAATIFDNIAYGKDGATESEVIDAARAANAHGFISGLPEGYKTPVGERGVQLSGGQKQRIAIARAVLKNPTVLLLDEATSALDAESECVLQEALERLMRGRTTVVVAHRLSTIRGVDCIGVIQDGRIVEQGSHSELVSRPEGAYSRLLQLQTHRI
From the text: Expression in Yeast and Xenopus Oocytes. ATPAC cDNA was expressed in wild type yeast as well as in yeasts lacking seven ABC transporters (as described by Decottignies et al., (1998) J. Biol. Chem. 273:12612-22)in order to create a heterologous system for studying function of the transporter. The yeasts were exposed to toxic compounds that are known substrates for human MDR1. […] Further, there was no evidence of a drug-pumping role for ATPAC.
ATPAC Binds the Auxin Transport Inhibitor naphthylphthalamic acid (NPA). Yeast expressing ATPAC was assayed for NPA binding. […] Bound NPA was not displaced by benzoic acid, a related hydrophobic organic acid. Proteins that bind NPA and influence auxin transport are considered important regulators of hormone action and therefore, of plant development.

O=C(O)COc1ccc(Cl)cc1Cl [2,4-D]
Phenotype of treated wild type seedlings [1]: strongly curved organs

O=C(O)c1ccccc1C(=O)Nc1cccc2ccccc12 [NPA, naphthylphthalamic acid]
NPA binding to ATPAC-expressing yeast (ATPAC; ATPAC-expressing yeast): bound tightly and specifically
NPA binding to control yeast (ATPAC; control yeast): not to control yeast

O=C(O)Cc1c[nH]c2ccccc12 [auxin]
Phenotype of treated wild type seedlings [1]: strongly curved organs

O=C(O)c1ccccc1 [benzoic acid]
Displacement of bound NPA (ATPAC; ATPAC-expressing yeast, bound NPA): not displaced
